Test results: PubChem BioAssay (NCI)
“And” between values parts separate entries of the source, which are not always exact repeats. Identical values can stand only once.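 Step 1: Grow cells in 96-well plates. Step 2: Expose to compound for 48 hours at 5 concentrations. Step 3: Interpolate endpoints linearly; if unreached, use highest concentration. Here, GI50 denotes the concentration required for 50% inhibition of growth. Definition used: TGI = concentration required for complete inhibition of growth.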 Where a SMILES comes first, the peptide text is derived from it. [ ]: non-standard residue; d: D form. The star is where a group is joined. Bn2Val = CC(C)[C@@H](C(=O)*)N(Cc1ccccc1)Cc1ccccc1; NH(3,4-diMeO-benzyl) = COc1ccc(CN*)cc1OC; NMeV = CN[C@H](C(=O)O)C(C)C; dNMeA = CN[C@H](C)C(=O)O

Assays:
Assay in all cases: NCI tumour cell line growth inhibition, 48 h
A498 renal = tested on: A498 renal
OVCAR-5 ovarian = tested on: OVCAR-5 ovarian
SNB-75 CNS = tested on: SNB-75 CNS
SR leukemia = tested on: SR leukemia
ACHN renal = tested on: ACHN renal
LOX IMVI melanoma = tested on: LOX IMVI melanoma
NCI-H226 lung = tested on: NCI-H226 lung
HCT-116 colon = tested on: HCT-116 colon
RPMI-8226 leukemia = tested on: RPMI-8226 leukemia
SF-295 CNS = tested on: SF-295 CNS

Compound | TGI (A498 renal) [µM] | TGI (OVCAR-5 ovarian) | TGI (SNB-75 CNS) | TGI (SR leukemia) [µM] | TGI (ACHN renal) | TGI (LOX IMVI melanoma) | TGI (NCI-H226 lung) | TGI (HCT-116 colon) | TGI (RPMI-8226 leukemia) | TGI (SF-295 CNS) | GI50 (A498 renal) [µM] | GI50 (OVCAR-5 ovarian) [µM] | GI50 (SNB-75 CNS) [µM] | GI50 (ACHN renal) [µM] | GI50 (LOX IMVI melanoma) [µM] | GI50 (NCI-H226 lung) [µM] | GI50 (HCT-116 colon) [µM] | GI50 (RPMI-8226 leukemia) [µM] | GI50 (SF-295 CNS) [µM] | GI50 (SR leukemia) [µM]
CCCCCCCCCCCCCCC1OC(=O)c2ccccc21 (stereo not given) | > 100 | > 100 µM | > 100 µM | > 100 | > 100 µM | > 100 µM | > 100 µM | > 100 µM | > 100 µM | > 100 µM | – | – | – | – | – | – | – | – | – | –
O=C1NC(=O)C2C(=O)NC(=O)C1C2(c1ccccc1)c1ccc(Cl)cc1 (stereo not given) | > 100 | > 100 µM | > 100 µM | – | > 100 µM | > 100 µM | > 100 µM | – | > 100 µM | > 100 µM | – | – | – | – | – | – | – | – | – | –
COC(=O)C(CC(=O)c1cc2c(cc1I)OCO2)Cc1cc(OC)c(OC)c(OC)c1I (stereo not given) | – | > 100 µM | – | > 100 | > 100 µM | > 100 µM | > 100 µM | > 100 µM | > 100 µM | > 100 µM | – | – | – | – | – | – | – | – | – | –
Cc1c(N2C(=O)/C(=C\c3ccccc3O)N=C2c2ccccc2)c(=O)n(-c2ccccc2)n1C | > 100 | > 100 µM | 40.3 µM | – | > 100 µM | > 100 µM | > 100 µM | > 100 µM | > 100 µM | 78.6 µM | > 100 | > 100 | 15.7 | 53.8 | 62.3 | 63.7 | 51.6 | > 100 | 26.2 | –
CC1CCC[P+](Cc2ccccc2)(c2ccccc2)CC1 (stereo not given) | > 100 | > 100 µM | > 100 µM | – | > 100 µM | > 100 µM | – | – | 51.4 µM | – | – | – | – | – | – | – | – | – | – | –
COC(=O)c1c(OC)cccc1C(=O)O | > 100 | > 100 µM | > 100 µM | – | > 100 µM | – | > 100 µM | > 100 µM | > 100 µM | > 100 µM | – | – | – | – | – | – | – | – | – | –
COc1nc2c(cc1S(=O)(=O)c1ccccc1)CCc1c-2cnn1-c1ccccc1Cl | – | > 100 µM | > 100 µM | > 100 | – | > 100 µM | > 100 µM | > 100 µM | > 100 µM | > 100 µM | – | > 100 | 5.19 | – | > 100 | 4.91 | 5.31 | 5.39 | 5.72 | 5.01
CCOC(=O)CCCO | > 100 | > 100 µM | > 100 µM | > 100 | > 100 µM | > 100 µM | – | – | > 100 µM | > 100 µM | – | – | – | – | – | – | – | – | – | –
O=C(/C=C/c1cccs1)c1ccc(Cl)cc1 | > 100 | > 100 µM | > 100 µM | 71.1 | > 100 µM | – | > 100 µM | > 100 µM | 57.8 µM | > 100 µM | – | – | – | – | – | – | – | – | – | –
COc1ccc(N=Cc2cc(OC)c(OC)c(OC)c2)cc1 | > 100 | > 100 µM | > 100 µM | – | > 100 µM | > 100 µM | – | > 100 µM | 59.6 µM | – | – | – | – | – | – | – | – | – | – | –
C#CC(C)(C)Oc1cc(O)c2c(=O)c3ccccc3n(C)c2c1 | > 100 | > 100 µM | > 100 µM | 35.7 | > 100 µM | 44.3 µM | > 100 µM | > 100 µM | – | > 100 µM | – | – | – | – | – | – | – | – | – | –
CC(=O)OCCc1cccnc1/C=N/O | – | > 100 µM | > 100 µM | > 100 | > 100 µM | > 100 µM | > 100 µM | > 100 µM | – | > 100 µM | – | – | – | – | – | – | – | – | – | –
Cc1cc(C)nc(NS(=O)(=O)c2ccc(NC(=O)c3cccc4c(=O)c5ccccc5[nH]c34)cc2)n1 | 34.9 | – | 50 µM | > 100 | 49.2 µM | 31.8 µM | 36 µM | 30.7 µM | 83 µM | 43.5 µM | – | – | – | – | – | – | – | – | – | –
Clc1ccc(Cc2nc3cc4ccccc4cc3[nH]2)cc1 | > 100 | > 100 µM | > 100 µM | – | 57.7 µM | > 100 µM | > 100 µM | 20.6 µM | > 100 µM | 30 µM | 21.7 | 26.3 | > 100 | 18.8 | 13.2 | 30.1 | 5.06 | 9.77 | 3.08 | –
O=C(O)c1cc(S(=O)(=O)N=NC=C2c3ccccc3N(O)c3ccccc32)ccc1O | 41 | > 100 µM | 7.77 µM | – | 59.6 µM | 26 µM | 72.4 µM | 27.9 µM | 76.6 µM | 20.1 µM | – | – | – | – | – | – | – | – | – | –
C[Si](C)(C)c1ccc(CC2(Cc3ccc([Si](C)(C)C)cc3)CCNC2)cc1 | 2.91 | 15.4 µM | 7.67 µM | – | 9.37 µM | 3.19 µM | 3.34 µM | 3.17 µM | – | 6.86 µM | – | – | – | – | – | – | – | – | – | –
Clc1cccc(NC=Nc2ccc(-c3nc4ccccc4s3)cc2)c1 | – | > 50 µM | – | 21.1 | 27.6 µM | 17.5 µM | – | 24.1 µM | > 50 µM | > 50 µM | – | 23.6 | – | 11.7 | 9.46 | – | 11 | 14.4 | 17.4 | 9.55
COc1ccc(CNC(=O)[C@@H](C)N(C)C(=O)[C@@H]2CCCN2C(=O)[C@H](C(C)C)N(C)C(=O)[C@@H](NC(=O)[C@H](C(C)C)N(Cc2ccccc2)Cc2ccccc2)C(C)C)cc1OC (Bn2Val-V[NMeV]P[dNMeA]-{NH(3,4-diMeO-benzyl)}) | 23.7 | 16.6 µM and 9.77 µM | 16.6 µM and 15.9 µM | – | 14.9 µM and 23.9 µM | 15.4 µM and 26.2 µM | 15.3 µM and 31.3 µM | 14.4 µM and 17.7 µM | 20 µM and 18.6 µM | 13.8 µM and 23 µM | – | 2.79 | 3.54 | 8.21 | 6.35 | 13.7 | 4.87 | – | 9.29 | –
COc1cc2c(cc1OC)C1C=NC(C(=O)O)(C2)c2ccccc21 (stereo not given) | > 100 | > 100 µM | > 100 µM | > 100 | – | > 100 µM | > 100 µM | > 100 µM | > 100 µM | > 100 µM | – | – | – | – | – | – | – | – | – | –
O=C1c2ccccc2-c2c1c1cc3c(cc1c(=O)n2CCCCl)OCO3 | > 100 | – | > 100 µM | – | 98.7 µM | > 100 µM | – | 90.1 µM | > 100 µM | 46.8 µM | 59.8 | – | 0.58 | 24.5 | 39.7 | – | 17.7 | 78.6 | 16.2 | –
OCc1c(-c2cccc3ccccc23)sc(-c2cccc3ccccc23)c1CO | – | 30.9 µM | 30.7 µM | 44 | 25.1 µM | 30.5 µM | 32.9 µM | – | 43.7 µM | 28.2 µM | – | – | – | – | – | – | – | – | – | –
